Assay results: ChEMBL document CHEMBL3813664, “Synthesis and evaluation of biphenyl derivatives as potential downregulators of VEGF protein secretion and telomerase-related gene expressions” (Bioorg Med Chem, 2016)
Values after ≈ are worked out from the molar mass of the structure shown. Active and inactive are the calls of the source. No cut-off for these calls is given here.

How the values were obtained:
HT-29 [1] = test: Cytotoxicity against human HT-29 cells assessed as reduction in cell growth after 3 days by MTT assay; format: functional, cell-based; conditions: HT-29, 72 h
HT-29 [2] = test: Downregulation of VEGFA-165 secretion in human HT-29 cells assessed as protein secretion levels at 15 ug/ml after 72 hrs by ELISA relative to control; format: functional
HT-29 [3] = test: Downregulation of VEGFA gene expression in human HT-29 cells assessed as gene expression levels at 15 ug/ml after 48 hrs by RT-qPCR analysis relative to control; format: functional
HEK293 = test: Cytotoxicity against HEK293 cells assessed as reduction in cell growth after 3 days by MTT assay; format: cell-based; conditions: Homo sapiens, HEK293, 72 h
MCF7 = test: Cytotoxicity against human MCF7 cells assessed as reduction in cell growth after 3 days by MTT assay; format: functional, cell-based; conditions: MCF7, 72 h
[4] = Therapeutic index, ratio of IC50 for HEK293 cells to IC50 for human HT-29 cells; format: cell-based; conditions: HEK293 cells versus HT-29 cells, read-out: Ratio IC50
[5] = Therapeutic index, ratio of IC50 for HEK293 cells to IC50 for human MCF7 cells; format: cell-based; conditions: HEK293 cells versus MCF7 cells, read-out: Ratio IC50
HT-29 [6] = test: Downregulation of TERT gene expression in human HT-29 cells assessed as gene expression levels at 15 ug/ml after 48 hrs by RT-qPCR analysis relative to control; format: functional
HT-29 [7] = test: Downregulation of c-Myc gene expression in human HT-29 cells assessed as gene expression levels at 15 ug/ml after 48 hrs by RT-qPCR analysis relative to control; format: functional
HT-29 [8] = test: Downregulation of c-Myc gene expression in human HT-29 cells assessed as gene expression levels at 5 ug/ml after 48 hrs by RT-qPCR analysis relative to control; format: functional
HT-29 [9] = test: Downregulation of VEGFA gene expression in human HT-29 cells assessed as gene expression levels at 5 ug/ml after 48 hrs by RT-qPCR analysis relative to control; format: functional
HT-29 [10] = test: Downregulation of TERT gene expression in human HT-29 cells assessed as gene expression levels at 5 ug/ml after 48 hrs by RT-qPCR analysis relative to control; format: functional
HT-29 [11] = test: Downregulation of VEGFA-165 secretion in human HT-29 cells assessed as protein secretion levels at 5 ug/ml after 72 hrs by ELISA relative to control; format: functional
HT-29 [12] = test: Downregulation of VEGFA-165 secretion in human HT-29 cells assessed as protein secretion levels at 20 ug/ml after 72 hrs by ELISA relative to control; format: functional
HT-29 [13] = test: Downregulation of VEGFA gene expression in human HT-29 cells assessed as gene expression levels at 20 ug/ml after 48 hrs by RT-qPCR analysis relative to control; format: functional
HT-29 [14] = test: Downregulation of TERT gene expression in human HT-29 cells assessed as gene expression levels at 20 ug/ml after 48 hrs by RT-qPCR analysis relative to control; format: functional
HT-29 [15] = test: Downregulation of c-Myc gene expression in human HT-29 cells assessed as gene expression levels at 20 ug/ml after 48 hrs by RT-qPCR analysis relative to control; format: functional
HT-29 [16] = test: Downregulation of VEGFA gene expression in human HT-29 cells assessed as gene expression levels at 10 ug/ml after 48 hrs by RT-qPCR analysis relative to control; format: functional
HT-29 [17] = test: Downregulation of TERT gene expression in human HT-29 cells assessed as gene expression levels at 10 ug/ml after 48 hrs by RT-qPCR analysis relative to control; format: functional
HT-29 [18] = test: Downregulation of VEGFA-165 secretion in human HT-29 cells assessed as protein secretion levels at 10 ug/ml after 72 hrs by ELISA relative to control; format: functional
HT-29 [19] = test: Downregulation of c-Myc gene expression in human HT-29 cells assessed as gene expression levels at 10 ug/ml after 48 hrs by RT-qPCR analysis relative to control; format: functional
HT-29 [20] = test: Downregulation of VEGFA-165 secretion in human HT-29 cells assessed as protein secretion levels at 30 ug/ml after 72 hrs by ELISA relative to control; format: functional
HT-29 [21] = test: Downregulation of c-Myc gene expression in human HT-29 cells assessed as gene expression levels at 30 ug/ml after 48 hrs by RT-qPCR analysis relative to control; format: functional
HT-29 [22] = test: Downregulation of VEGFA gene expression in human HT-29 cells assessed as gene expression levels at 30 ug/ml after 48 hrs by RT-qPCR analysis relative to control; format: functional
HT-29 [23] = test: Downregulation of TERT gene expression in human HT-29 cells assessed as gene expression levels at 30 ug/ml after 48 hrs by RT-qPCR analysis relative to control; format: functional
HT-29 [24] = test: Downregulation of TERT gene expression in human HT-29 cells assessed as gene expression levels at 3 ug/ml after 48 hrs by RT-qPCR analysis relative to control; format: functional
HT-29 [25] = test: Downregulation of VEGFA-165 secretion in human HT-29 cells assessed as protein secretion levels at 3 ug/ml after 72 hrs by ELISA relative to control; format: functional
HT-29 [26] = test: Downregulation of VEGFA gene expression in human HT-29 cells assessed as gene expression levels at 3 ug/ml after 48 hrs by RT-qPCR analysis relative to control; format: functional
HT-29 [27] = test: Downregulation of c-Myc gene expression in human HT-29 cells assessed as gene expression levels at 3 ug/ml after 48 hrs by RT-qPCR analysis relative to control; format: functional
HT-29 [28] = test: Downregulation of VEGFA-165 secretion in human HT-29 cells assessed as protein secretion levels at <1.1 ug/ml after 72 hrs by ELISA relative to control; format: functional, cell-based

SMILES | IC50 (HT-29 [1]) | Activity (HT-29 [2]) | Activity (HT-29 [3]) | IC50 (HEK293) | IC50 (MCF7) | selectivity ratio [4] | selectivity ratio [5] | Activity (HT-29 [6]) | Activity (HT-29 [7]) | other results
COc1ccc(-c2ccccc2N)cc1OC | 15 µg/mL (≈ 65.4 µM) | 56% | 61% | 49.9 µg/mL (≈ 218 µM) | 18 µg/mL (≈ 78.5 µM) | 3.3 | 3 | 86% | 50% | –
Nc1ccccc1-c1ccccc1 | 16 µg/mL (≈ 94.5 µM) | 91% | 65% | 54.9 µg/mL (≈ 324 µM) | 2.9 µg/mL (≈ 17.1 µM) | 3.3 | 19 | 56% | 53% | –
C=CCc1ccc(O)c(-c2ccc(O)c(CC=C)c2)c1 [HONOKIOL] | – | – | – | 9.3 µg/mL (≈ 34.9 µM) | 5 µg/mL (≈ 18.8 µM) | 1.5 | 1.9 | – | – | Activity (HT-29 [8]): 45%; Activity (HT-29 [9]): 36%; Activity (HT-29 [10]): 45%; Activity (HT-29 [11]): 55%
Oc1ccc(-c2ccccc2)cc1 | 25 µg/mL (≈ 147 µM) | – | – | 45 µg/mL (≈ 264 µM) | 47 µg/mL (≈ 276 µM) | 2 | 1 | – | – | Activity (HT-29 [12]): 48%; Activity (HT-29 [13]): 65%; Activity (HT-29 [14]): 81%; Activity (HT-29 [15]): 55%
COc1ccccc1-c1cccc(O)c1 | 22 µg/mL (≈ 110 µM) | 31% | 76% | 50 µg/mL (≈ 250 µM) | 44 µg/mL (≈ 220 µM) | 2.3 | 1.1 | 62% | 50% | –
COc1ccc(-c2ccc(O)cc2)cc1OC | 26 µg/mL (≈ 113 µM) | – | – | > 100 µg/mL | 34 µg/mL (≈ 148 µM) | > 4 | > 3 | – | – | Activity (HT-29 [12]): 55%; Activity (HT-29 [13]): 41%; Activity (HT-29 [14]): 22%; Activity (HT-29 [15]): 87%
COc1cccc(-c2cccc(O)c2)c1 | 16 µg/mL (≈ 79.9 µM) | – | – | 34 µg/mL (≈ 170 µM) | 33 µg/mL (≈ 165 µM) | 2 | 1 | – | – | Activity (HT-29 [16]): 21%; Activity (HT-29 [17]): 88%; Activity (HT-29 [18]): 31%; Activity (HT-29 [19]): 71%
COc1cccc(-c2ccc(O)cc2)c1 | 24 µg/mL (≈ 120 µM) | 48% | 51% | 35 µg/mL (≈ 175 µM) | 41 µg/mL (≈ 205 µM) | 1.5 | 0.9 | 35% | 34% | –
COc1ccc(-c2ccccc2O)c(OC)c1 | 33.7 µg/mL (≈ 146 µM) | – | – | > 100 µg/mL | > 100 µg/mL | > 3 | – | – | – | Activity (HT-29 [20]): 29%; Activity (HT-29 [21]): 54%; Activity (HT-29 [22]): 56%; Activity (HT-29 [23]): 29%
COc1ccc(-c2ccc(O)cc2)c(OC)c1 | 21 µg/mL (≈ 91.2 µM) | 35% | 37% | > 100 µg/mL | 47 µg/mL (≈ 204 µM) | > 5 | > 2 | 56% | 87% | –
COc1ccc(-c2cccc(N)c2)cc1OC | 4 µg/mL (≈ 17.4 µM) | – | – | 20 µg/mL (≈ 87.2 µM) | > 100 µg/mL | 5 | < 0.2 | – | – | Activity (HT-29 [24]): 90%; Activity (HT-29 [25]): 42%; Activity (HT-29 [26]): 57%; Activity (HT-29 [27]): 40%
COc1ccccc1-c1ccccc1O | 2.7 µg/mL (≈ 13.5 µM) | – | – | 54 µg/mL (≈ 270 µM) | > 100 µg/mL | 20 | < 0.5 | – | – | Activity (HT-29 [24]): 3%; Activity (HT-29 [25]): 33%; Activity (HT-29 [26]): 17%; Activity (HT-29 [27]): 6%
COc1cccc(-c2ccccc2)c1 | 1.1 µg/mL (≈ 5.97 µM) | – | – | 5.5 µg/mL (≈ 29.9 µM) | 47 µg/mL (≈ 255 µM) | 5.1 | 0.1 | – | – | Activity (HT-29 [8]): 81%; Activity (HT-29 [28]): inactive; Activity (HT-29 [9]): 73%; Activity (HT-29 [10]): 77%; Activity (HT-29 [11]): 57%
Oc1ccc(-c2cccc(O)c2)cc1 | 3.4 µg/mL (≈ 18.3 µM) | – | – | 31 µg/mL (≈ 166 µM) | > 100 µg/mL | 9 | 9 | – | – | Activity (HT-29 [24]): 30%; Activity (HT-29 [25]): 52%; Activity (HT-29 [26]): 35%; Activity (HT-29 [27]): 39%
